Measured values reported in publication PMC7198601, “Side chain effect in the modulation of αvβ3/α5β1 integrin activity via clickable isoxazoline-RGD-mimetics: development of molecular delivery systems” (Scientific Reports, 2020).
Values belong to the compound of their own block, whether it stands above or below them.

Columns and labels:
selected integrins = test: Effect of the aromatised degradation product on the activity of selected integrins
Method: (§1) LC-MS injections were performed after 30 min from the preparation of the samples and then after each 1.5 hours, following the experiments for 14 h (Fig. 4). […] As a consequence of the spontaneous aromatization of A, also an increasing amount of B was observed after a short period. The aromatised form B was tested to evaluate its effect on the activity of selected integrins but, as consequence of the absence of a crucial pharmacophore, it was not active. This behaviour doesn’t represent a big issue since strong basic conditions are quite unusual in physiological environment. In fact under stress conditions with a large excess of base, the decomposition of 17b to A occurred in few minutes.

[1] = system: α5β1 integrin-mediated phosphorylation of ERK1/2; test: α5β1 integrin-mediated ERK1/2 phosphorylation in K562 cells (Western blot); format: cell-based, human
Method: The mechanism by which components of extracellular matrix generate intracellular signalling through integrins requires indeed an increased phosphorylation of cytoplasmatic second messengers. Phosphorylation of ERK1/2 plays a central role in fibronectin-mediated survival signalling through integrins: in fact, cell adhesion activates ERK1/2 by binding of α5β1 integrins at the cell surface to extracellular matrix proteins such as fibronectin. The experiment was performed by serum-starving K562 cells in RPMI-1640 containing 1% FBS for 16 h; thereafter, they were preincubated with compound 17b, 24 (10^−7–10^−9 M) or the vehicle for 60 minutes and then plated for 60 minutes on fibronectin.
Figure 2 (a) Cropped blots related to the effect of compounds 17b and 24 on α5β1 integrin-mediated phosphorylation of ERK1/2 in K562 cells. Cells were serum-starved in RPMI-1640 containing 1% FBS for 16 h; then cells were preincubated with different concentrations of the antagonist 17b (10^−7–10^−9 M) or its vehicle for 1 h in suspension and then were allowed to adhere for 1 h on fibronectin (FN). […] Thereafter cells were lysed and lysates were analysed in Western blot using an antibody directed against phosphorylated ERK1/2 (pERK1/2) or total ERK1/2 (totERK1/2). […]
K562 cells were incubated in RPMI-1640 with 1% FBS for 16 h. […] Digital images were acquired and analyzed following previously reported methods.

[2] = Stability in water at neutral, basic and acidic pH (LC-MS); format: physicochemical; conditions: for loss of product: water, after several hours
Method: as §1
(§2) Figure 4 Stability of 17b in neutral, basic, acidic and physiological conditions and its possible degradation pathway. Conditions: 17b (0.1 mmol) in 300 µl of solvent (water or bovine serum). 5 eq of LiOH·H2O or HCl 1 M were added.

α5β1 integrin [3] = biological target: T1, α5β1 integrin (Homo sapiens, UniProt P05556+P08648); test: α5β1 integrin internalization by confocal microscopy in HEK293 + α5-EGFP cells; format: cell-based
Source text: Integrin trafficking is an important mechanism employed by cells to regulate integrin–extracellular matrix interactions, and thus cellular signalling, during processes such as cell migration and invasion. α5β1 integrin is internalized, trafficked to recycling endosomes and then recycled to the plasma membrane[43],[44]. Membrane trafficking pathways influence α5β1’s ability to promote invasion and metastasis[45],[46]. […]
HEK293 cells (not expressing α5 but endogenously expressing β1 integrin[47],[48] were plated in 6 well plates and at 50–60% confluence were transiently transfected with α5-EGFP plasmid using Lipofectamine2000 transfection reagent (LifeTechnologies). After 48 h from transfection, HEK293 + α5-EGFP cells were assessed to verify integrins expression by flow cytometry (data not shown). α5-EGFP integrin plasmid was a kind gift from Michael Davidson (Addgene plasmid #56423). HEK293 + α5-EGFP cells were treated at 4 °C with fibronectin (10 µg/ml) or the agonist 24 (1 µM) in MEM for 1 hour. Cells exposed to the antagonist 17b (1 µM), before the addition of fibronectin, were pre-incubated with the compound for 20 minutes at 4 °C. […]
(§3) Specimens were embedded in Mowiol and analyzed using a Nikon C1s confocal laser-scanning microscope, equipped with a Nikon PlanApo 60×, 1.4-NA oil immersion lens. […]

[4] = Stability in bovine serum (LC-MS); format: in vitro ADME
Method: as §1, §2

αvβ3 integrin = αvβ3 integrin (Homo sapiens, UniProt P05106+P06756); test: Cell adhesion assay: SK-MEL-24 cells to immobilized fibronectin (αvβ3 integrin-mediated)
Method: (§8) The ability of the synthesized racemic ligands to inhibit the adhesion of K562 cells (human erythroleukemic cells, expressing α5β1 integrin) or SK-MEL-24 cells (human malignant melanoma cells, expressing αvβ3 integrin) to immobilized fibronectin was evaluated[29]. […] In these experiments, the cells were seeded onto plates coated with fibronectin and allowed to adhere before quantitation of the number of adherent cells, in presence of increasing concentrations of the compounds.
(§9) SK-MEL-24 (American Tissue Culture Collection, ATCC, Rockville, MD) were routinely grown in minimum essential medium (MEM, Cambrex, Walkersville, MD) supplemented with 10% fetal bovine serum (FBS), nonessential amino acids, and sodium pyruvate. K-562 (ATCC, Rockville, MD) were maintained as a stationary suspension culture in RPMI-1640 and L-glutamine with 10% FBS (Invitrogen (Carlsbad, CA). Cells were kept at 37 °C in a 5% CO2 humidified atmosphere. Forty hours before experiments, K-562 were treated with 25 ng/mL PMA (Sigma-Aldrich SRL, Milan, Italy) to induce differentiation and to increase expression of cell surface antigens[50].
(§10) Plates (96 wells) (Corning Costar, Celbio, Milan,Italy) were coated by passive adsorption with fibronectin (10 µg/mL) or poly-L-lysine (0.002%) (Sigma-Aldrich SRL) overnight at 4 °C. Cells were counted with a haemocytometer and pre-incubated with different concentrations of each compound or with the vehicle (methanol) for 30 min at room temperature to reach a ligand-receptor equilibrium. Stock solutions (10^–2 M) of the assayed compounds were prepared in phosphate-buffered saline (PBS). […] This product is a chromogenic substrate for β-N-acetylglucosaminidase that is transformed in 4-nitrophenol whose absorbance can be measured at 405 nm. As previously described[51], there is a linear correlation between absorbance and enzymatic activity. Therefore, it is possible to identify the number of adherent cells among treated wells, interpolating the absorbance values of unknowns in a calibration curve. The reaction was blocked by addition of 100 µL of a stopping solution [50 µM glycine and 5 µM EDTA (pH 10.4)], and the plates were read in an EnSpire Multimode Plate Reader (PerkinElmer, Waltham, MA, USA). Experiments were carried out in quadruplicate and repeated at least three times. Data analysis and IC50/EC50 values were calculated using Graph-Pad Prism 5.0 (GraphPad Software, San Diego, CA).

α5β1 integrin [5] = biological target: T1, α5β1 integrin; test: Cell adhesion assay: K562 cells to immobilized fibronectin (α5β1 integrin-mediated)
Method: as §8, §9, §10

HEK293 cells = test: Confocal microscopy of FITC-conjugate internalization in HEK293 cells not expressing α5; format: cell-based, human; conditions: HEK293 cells that do not express α5 integrin, 0.1–1 μM
Method: (§4) In order to visualize the localization of isoxazolines inside the cells and to explore the possibility to use them as shuttles for selective delivery of therapeutic payloads and diagnostics, compound 31 was synthesized conjugating 17b with FITC, as described above. […] In addition, the internalization of compound 31 was concentration-dependent: at a higher concentration (1 μM) it accumulated inside the cells in a greater extent.
(§5) Figure 5 Confocal microscopy images of HEK293 or HEK293 + α5, HEK293 + αvβ3 and K562 cells treated with compound 31 (Cpd 31). […] In the left column of each panel green (FITC) fluorescence was shown, whereas in right one green and blue (DAPI) signals were merged. […] Scale bar: 30 µm. d) Compound 31 internalization was evaluated according to green fluorescence intensity in the cells and is reported in the graph. […]
as §3
(§6) For internalization analysis of ligand 31, the mean fluorescence intensity was related to the background; the relative fluorescence intensity is reported in the graph in Fig. 5.

K562 cells = test: Confocal microscopy of FITC-conjugate internalization in K562 cells; format: cell-based, human
Method: (§7) Figure 5 Confocal microscopy images of HEK293 or HEK293 + α5, HEK293 + αvβ3 and K562 cells treated with compound 31 (Cpd 31). Cells were exposed to compound 31 (0.1–1 μM) or its vehicle for 60 minutes at 4 °C and thereafter cells were moved to 37 °C for 15 minutes to promote integrin internalization and fixed as described in Methods. a) Compound 31, conjugated with FITC was able to enter the cells in α5 integrin-dependent manner: it was internalized in HEK293 + α5 but not in HEK293 cells. Right Panels: HEK293 cells not expressing α5 integrin subunit. Left Panels: HEK293 + α5. b) Concentration-dependent internalization of compound 31 was observed also in K562 cancer cells, endogenously expressing α5β1 integrin. […] In the left column of each panel green (FITC) fluorescence was shown, whereas in right one green and blue (DAPI) signals were merged. Nuclei were counterstained with DAPI. Scale bar: 30 µm. d) Compound 31 internalization was evaluated according to green fluorescence intensity in the cells and is reported in the graph. […]
as §3, §6

HEK293 + αvβ3 cells = test: Confocal microscopy of FITC-conjugate internalization in HEK293 + αvβ3 cells; format: cell-based, human; conditions: HEK293 + αvβ3 cells not expressing α5β1, 0.1–1 μM
Method: as §7, §3, §6

HEK293 + α5 cells = test: Confocal microscopy of FITC-conjugate internalization in HEK293 + α5 cells; format: cell-based, human; conditions: 0.1–1 μM
Method: as §4, §5, §3, §6

[6] = K562 cell adhesion to fibronectin

T1 sequence (P08648 42-894 limits assumed): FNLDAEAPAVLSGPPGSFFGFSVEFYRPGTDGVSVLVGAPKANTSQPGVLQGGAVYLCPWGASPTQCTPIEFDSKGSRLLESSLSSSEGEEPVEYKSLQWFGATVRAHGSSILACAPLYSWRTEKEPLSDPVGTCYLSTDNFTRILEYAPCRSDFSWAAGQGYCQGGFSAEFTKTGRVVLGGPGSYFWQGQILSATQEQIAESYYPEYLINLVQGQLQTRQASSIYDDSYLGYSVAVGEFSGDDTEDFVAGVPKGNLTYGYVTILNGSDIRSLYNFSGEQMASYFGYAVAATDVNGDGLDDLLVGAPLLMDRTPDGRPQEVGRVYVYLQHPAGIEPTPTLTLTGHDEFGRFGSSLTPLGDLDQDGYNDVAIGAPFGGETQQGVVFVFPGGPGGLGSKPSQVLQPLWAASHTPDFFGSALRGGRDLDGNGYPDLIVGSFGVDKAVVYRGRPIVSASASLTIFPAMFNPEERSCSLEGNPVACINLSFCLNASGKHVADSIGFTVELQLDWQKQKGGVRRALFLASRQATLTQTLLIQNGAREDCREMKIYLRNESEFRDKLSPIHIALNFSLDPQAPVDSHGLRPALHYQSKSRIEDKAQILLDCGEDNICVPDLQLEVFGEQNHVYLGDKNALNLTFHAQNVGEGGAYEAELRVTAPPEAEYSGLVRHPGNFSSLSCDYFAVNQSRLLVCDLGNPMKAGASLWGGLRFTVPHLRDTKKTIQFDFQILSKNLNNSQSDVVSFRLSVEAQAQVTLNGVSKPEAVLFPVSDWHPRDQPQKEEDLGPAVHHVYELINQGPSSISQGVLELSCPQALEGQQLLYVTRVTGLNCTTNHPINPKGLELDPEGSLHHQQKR
T1 sequence (P08648 895-1049 partner limits assumed): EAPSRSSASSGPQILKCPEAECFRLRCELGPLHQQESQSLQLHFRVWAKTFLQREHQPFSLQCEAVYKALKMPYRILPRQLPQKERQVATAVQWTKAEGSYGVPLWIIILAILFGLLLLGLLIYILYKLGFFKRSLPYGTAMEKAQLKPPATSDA
T1 sequence (P05556 21-798): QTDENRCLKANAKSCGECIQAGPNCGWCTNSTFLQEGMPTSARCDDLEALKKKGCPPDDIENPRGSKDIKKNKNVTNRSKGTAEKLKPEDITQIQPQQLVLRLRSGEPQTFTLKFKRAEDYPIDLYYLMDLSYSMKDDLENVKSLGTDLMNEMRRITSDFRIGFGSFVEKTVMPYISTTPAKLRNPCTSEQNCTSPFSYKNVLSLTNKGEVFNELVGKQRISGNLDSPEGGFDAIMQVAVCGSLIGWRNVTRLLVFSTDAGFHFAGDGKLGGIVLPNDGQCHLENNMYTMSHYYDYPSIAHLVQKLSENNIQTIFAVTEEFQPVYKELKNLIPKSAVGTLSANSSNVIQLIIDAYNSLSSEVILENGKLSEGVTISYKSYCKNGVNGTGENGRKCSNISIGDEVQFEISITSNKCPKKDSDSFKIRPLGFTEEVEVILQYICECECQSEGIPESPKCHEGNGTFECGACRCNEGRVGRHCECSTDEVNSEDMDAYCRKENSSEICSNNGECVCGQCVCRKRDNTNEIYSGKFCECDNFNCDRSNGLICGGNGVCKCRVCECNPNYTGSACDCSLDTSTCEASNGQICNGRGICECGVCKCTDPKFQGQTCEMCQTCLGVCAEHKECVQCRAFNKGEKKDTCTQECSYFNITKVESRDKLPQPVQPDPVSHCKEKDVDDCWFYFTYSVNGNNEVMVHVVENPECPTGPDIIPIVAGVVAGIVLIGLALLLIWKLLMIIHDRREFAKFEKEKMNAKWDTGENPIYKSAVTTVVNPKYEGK
Chain of αvβ3 integrin (P06756 31-889 limits assumed): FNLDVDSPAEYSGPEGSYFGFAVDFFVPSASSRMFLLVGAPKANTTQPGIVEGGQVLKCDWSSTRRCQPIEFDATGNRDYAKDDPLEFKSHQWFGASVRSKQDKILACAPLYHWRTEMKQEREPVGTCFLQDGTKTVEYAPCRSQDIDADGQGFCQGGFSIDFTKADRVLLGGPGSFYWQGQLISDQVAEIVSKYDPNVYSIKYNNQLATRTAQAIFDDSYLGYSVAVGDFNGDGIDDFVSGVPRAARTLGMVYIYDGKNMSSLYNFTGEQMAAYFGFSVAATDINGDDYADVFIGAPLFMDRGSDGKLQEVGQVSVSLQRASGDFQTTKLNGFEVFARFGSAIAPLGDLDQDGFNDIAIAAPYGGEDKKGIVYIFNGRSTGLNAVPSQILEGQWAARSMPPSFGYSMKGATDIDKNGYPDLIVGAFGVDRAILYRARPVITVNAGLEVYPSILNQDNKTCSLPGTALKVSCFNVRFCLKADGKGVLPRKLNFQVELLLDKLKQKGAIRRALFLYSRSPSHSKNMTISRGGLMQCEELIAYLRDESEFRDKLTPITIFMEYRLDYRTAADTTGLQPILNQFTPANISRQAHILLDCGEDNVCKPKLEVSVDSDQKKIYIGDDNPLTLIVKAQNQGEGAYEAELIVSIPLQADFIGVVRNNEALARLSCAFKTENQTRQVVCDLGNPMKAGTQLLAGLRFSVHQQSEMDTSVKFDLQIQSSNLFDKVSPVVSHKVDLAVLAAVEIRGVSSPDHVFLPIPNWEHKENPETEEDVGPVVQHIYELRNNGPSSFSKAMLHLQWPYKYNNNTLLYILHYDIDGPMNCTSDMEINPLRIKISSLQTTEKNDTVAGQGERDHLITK
Chain of αvβ3 integrin (P06756 891-1048 partner limits assumed): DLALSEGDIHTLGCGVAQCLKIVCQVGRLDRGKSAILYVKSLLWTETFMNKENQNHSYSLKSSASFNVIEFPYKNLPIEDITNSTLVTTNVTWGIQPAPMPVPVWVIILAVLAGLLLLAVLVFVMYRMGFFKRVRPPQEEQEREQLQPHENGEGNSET
Chain of αvβ3 integrin (P05106 27-788): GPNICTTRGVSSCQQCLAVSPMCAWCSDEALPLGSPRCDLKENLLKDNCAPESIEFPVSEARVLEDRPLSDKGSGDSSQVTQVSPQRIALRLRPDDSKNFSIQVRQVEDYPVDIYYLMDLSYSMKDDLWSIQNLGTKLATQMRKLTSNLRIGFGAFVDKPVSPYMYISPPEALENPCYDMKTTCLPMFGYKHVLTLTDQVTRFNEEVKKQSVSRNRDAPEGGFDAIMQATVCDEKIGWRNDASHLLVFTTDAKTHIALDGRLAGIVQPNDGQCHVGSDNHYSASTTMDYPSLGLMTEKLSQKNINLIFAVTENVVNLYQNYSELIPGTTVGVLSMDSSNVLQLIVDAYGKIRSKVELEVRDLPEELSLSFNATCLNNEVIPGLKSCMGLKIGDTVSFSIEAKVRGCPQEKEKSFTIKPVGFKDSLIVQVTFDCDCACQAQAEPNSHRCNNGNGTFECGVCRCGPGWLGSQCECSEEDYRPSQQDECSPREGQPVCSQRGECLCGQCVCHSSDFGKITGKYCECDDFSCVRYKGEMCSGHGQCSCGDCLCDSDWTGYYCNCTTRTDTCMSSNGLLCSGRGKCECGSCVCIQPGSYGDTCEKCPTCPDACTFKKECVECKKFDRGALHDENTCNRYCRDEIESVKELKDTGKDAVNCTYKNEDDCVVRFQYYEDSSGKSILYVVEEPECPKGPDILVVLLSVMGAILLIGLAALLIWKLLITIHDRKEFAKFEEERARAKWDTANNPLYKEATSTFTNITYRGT

Compound: Cc1onc(CCCc2cn(CCCNC(=O)OC(C)(C)C)nn2)c1C(=O)NCc1ccc(N)cc1 [B]
effect on the activity of selected integrins (selected integrins): not active

Compound: CC1=C(C(=O)NCc2ccc(N)cc2)C(CCCc2cn(CCCNC(=O)OC(C)(C)C)nn2)N(C(=O)CC(=O)O)O1 (centres unmarked) [Compound 17b]
fibronectin-induced ERK1/2 phosphorylation levels ([1]; K562 cells preincubated with compound 10^−7–10^−9 M, then plated on fibronectin): significant concentration-dependent reduction | loss of product ([2]; acidic treatment (pH=3, HCl)): 5% | loss of product ([2]; neutral conditions (pH=7)): 5% | decomposition to A ([2]; stress conditions with a large excess of base): few minutes | effect on fibronectin-induced α5β1 integrin internalization (α5β1 integrin [3]; compound 1 µM pre-incubated before fibronectin 10 µg/mL): prevented integrin internalization | stability in bovine serum [4]: no significant degradation | IC50 (αvβ3 integrin): > 1000 µM | IC50 (α5β1 integrin [5]): 0.0027 ± 0.0004 µM | α5β1 behaviour (agonist/antagonist) (α5β1 integrin [5]; [6]): antagonist

Compound: CC[C@@]1([C@@H]2O[C@@H]([C@H]3O[C@@](O)(CO)[C@H](C)C[C@@H]3C)C[C@@H]2C)CC[C@H]([C@]2(C)CC[C@]3(C[C@H](O)[C@@H](C)[C@@H]([C@@H](C)[C@@H](OC)[C@H](C)C(=O)O)O3)O2)O1 [monensin, reference compound]
effect on compound 31 internalization (K562 cells; monensin 2 µM for 2 h): significantly inhibited

Second part, led by results:

α5β1 integrin internalization by compound alone (α5β1 integrin [3]; compound 1 µM, no fibronectin): induced α5β1 internalization | IC50 (αvβ3 integrin): > 1000 µM | EC50 (α5β1 integrin [5]): 6.59 ± 0.16 µM | α5β1 behaviour (agonist/antagonist) (α5β1 integrin [5]; [6]): agonist
Compound: CC1=C(C(=O)NCc2ccc(N)cc2)C(CCCc2cn(CCCNC(=O)CCC(=O)OC(C)(C)C)nn2)N(C(=O)CC(=O)O)O1 (centres unmarked) [Compound 24]
ERK1/2-phosphorylation ([1]; K562 cells not incubated with fibronectin, compound 10^−7–10^−9 M): significant concentration dependent increase

IC50 (α5β1 integrin [5]): 0.13 ± 0.01 µM | α5β1 behaviour (agonist/antagonist) (α5β1 integrin [5]; [6]): antagonist | α5β1 IC50/EC50 (IC50 for antagonists) (α5β1 integrin [5]; K562 cell adhesion to fibronectin, antagonists, also >1000 cells with behaviour not given, mean ± SD): 0.13 ± 0.01 µM
Compound: CC1=C(C(=O)NCc2ccc(N)cc2)C(CCCc2cn(CCCNC(=S)Nc3ccc(-c4c5ccc(=O)cc-5oc5cc(O)ccc45)c(C(=O)O)c3)nn2)N(C(=O)CC(=O)O)O1 (centres unmarked) [Compound 31]
internalization (HEK293 cells): not able to enter | internalization (K562 cells; 0.1–1 μM): internalized in K562 cells in a concentration-dependent way | internalization (HEK293 + αvβ3 cells): not able to be internalized | intracellular localization / internalization (HEK293 + α5 cells): localized in the cell cytoplasm
